Holding throughout (experiment): DTP human tumour cell line panel, 48 h
Assay [1] concerns COLO 205 colon.
The subject of assay [2] is HCC-2998 colon.
In assay [3] the test system is HCT-15 colon.
The subject of assay [4] is HOP-62 NSCLC.
Assay [5] concerns IGROV1 ovarian.
Assay [6] concerns K-562 leukemia.
The subject of assay [7] is NCI-H226 lung.
Assay [8] deals with SK-OV-3 ovarian.
The test system of assay [9] is SNB-19 CNS.
In assay [10] the test system is SR leukemia.

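Where inhibition never reached the appropriate level, the endpoint shown equals the highest concentration tested. Otherwise, values were interpolated linearly from a five-concentration, 48-hour dose response in 96-well plates. GI50 marks 50% less growth. TGI marks complete inhibition of growth.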

The term GI50 denotes the concentration that inhibits growth by half. For orientation: TGI means the concentration giving total growth inhibition. Read a low TGI as more potent growth arrest.

With `COc1cc(SC)ccc1C(=O)N1CCCC(C)C1` (centres undefined), the GI50 in assay [1] was more than 100 µM; in assay [2], more than 100 µM; in [3], more than 100 µM; in [4], more than 100 µM; in assay [5], more than 100 µM; in [6] it was 58.7 µM. The GI50 was 80.4 µM in [7], more than 100 µM in assay [8], more than 100 µM in assay [9] and more than 100 µM in [10]. In addition, the TGI in assay [1], in assay [2], in [3], in assay [4], in assay [5] and in [6] was more than 100 µM in each case. Moreover, the TGI in [7], in assay [8], in assay [9] and in assay [10] was more than 100 µM each time.

In the case of `C/C(=N\n1c(N)c(C#N)c(-c2ccc(Cl)cc2)c(C#N)c1=O)c1cccnc1`, the GI50 in assay [1], in assay [2], in [3], in assay [4], in assay [5] and in [6] was more than 100 µM each time. The GI50 in assay [7], in assay [8], in [9] and in assay [10] was more than 100 µM throughout. Moreover, the TGI in assay [1], in assay [2], in [3], in assay [4], in assay [5] and in assay [6] was more than 100 µM in each case. For the same compound, the TGI in assay [7], in assay [8], in assay [9] and in assay [10] was more than 100 µM in each case.

Regarding `NC(=NC1C2CC3CC(C2)CC1C3)Nc1ccc(I)cc1` (centres undefined), the GI50 was 1 µM in [1]; 1.77 µM in assay [2]; 2.88 µM in [3]; 2.46 µM in [4]; 3.2 µM in assay [5]; 3.29 µM in assay [6]. The GI50 in [7] was 5.41 µM; in assay [8], 8.68 µM; in assay [9] it was 4.35 µM; in assay [10] it was 2.49 µM. The TGI in [1] came to 2.64 µM; in assay [2], 3.61 µM; in assay [3], 10.2 µM; in [4], 8.38 µM; in assay [5], 13.5 µM; in assay [6], 15.7 µM. In addition, the TGI worked out at 22.2 µM in [7], 23.3 µM in [8], 16.6 µM in [9] and 6.84 µM in [10].

As for `CC(=O)OCC1OC(O[C@@H]2C[C@H]3C(C)(C)[C@H](OC(C)=O)CC[C@]3(C)[C@H]3CC[C@@H]4[C@]5(CC[C@@]4(C)[C@@]32C)O[C@@H]([C@H](O)C(C)(C)O)C[C@@H]5C)C(O)C(O)C1O` (some centres undefined), the GI50 was 4.11 µM in assay [1]; 3.64 µM in [2]; 2.19 µM in [3]; 14.2 µM in assay [4]; 9.57 µM in assay [5]; 4.51 µM in assay [6]. Further, the GI50 in assay [7] was 10.7 µM; in assay [8], 7.95 µM; in [9], 12.5 µM; in assay [10] it was 3.08 µM. Moreover, the TGI in assay [1] is 14.3 µM; in assay [2], 15.9 µM; in [3] it was 5.94 µM; in assay [4] it was 27.3 µM; in [5], 21.6 µM; in assay [6], 25.1 µM. The TGI was 28.2 µM in assay [7], 20.7 µM in [8], 30.5 µM in [9] and 12.9 µM in assay [10].

As for `COc1cc(C(=O)c2c(-c3ccccc3)oc3ccccc23)cc(OC)c1O`, the GI50 is 18.9 µM in [1]; 5.2 µM in assay [2]; 0.667 µM in assay [3]; 7.3 µM in assay [4]; 2.6 µM in assay [5]; 0.4 µM in [6]. The GI50 in assay [7] was 8.14 µM; in assay [8] it was 6.24 µM; in assay [9], 6.76 µM; in assay [10], 0.377 µM. Besides, the TGI is 43.3 µM in assay [1]; 20.4 µM in [2]; 15.5 µM in assay [3]; 23.4 µM in assay [4]; 18.7 µM in [5]; 44.5 µM in assay [6]. For the same compound, the TGI in assay [7] stood at 37.2 µM; in assay [8] it was 52.1 µM; in [9], 21.7 µM; in assay [10], 23.9 µM.

Take `COc1ccccc1OCC(COC(=O)Nc1ccc(C)cc1)OC(=O)Nc1ccc(C)cc1` (centres undefined): the TGI in [1] is 32.4 µM; in [2], 35.3 µM; in assay [3] it was 29.9 µM; in [4] it was more than 100 µM; in [5] it was 60.1 µM; in assay [6] it was 45.5 µM. For the same compound, the TGI in [7] came out at 67.5 µM; in assay [8], 47.8 µM; in assay [9] it was 46.7 µM; in assay [10] it was 59.6 µM.

As for `CCOc1ccc(N2C(N)=NC(N)=NC2(C)C)cc1`, the GI50 in assay [1] was 69.9 µM; in assay [2], more than 100 µM; in assay [3], more than 100 µM; in [4], 95 µM; in assay [5] it was 46.5 µM; in [6], 36 µM. The GI50 in assay [7] was more than 100 µM; in [8] it was more than 100 µM; in assay [9], 55.8 µM; in [10] it was 74.6 µM. Moreover, the TGI in [1], in assay [2], in assay [3], in [4], in [5] and in assay [6] was more than 100 µM each time. The TGI in [7], in [8], in [9] and in assay [10] was more than 100 µM each time.

Consider `CCN(CC)c1ccc(/C=N\NC(=O)c2cccc(Nc3ccnc(C(F)(F)F)c3)c2)c(O)c1`, for which the concentration for 50% growth inhibition (GI50) in [1] was 0.327 µM; in assay [2], 0.278 µM; in assay [3], 0.123 µM; in assay [4], 0.184 µM; in assay [5], 0.143 µM; in [6] it was 0.374 µM. The GI50 was 0.311 µM in [7], 0.499 µM in [8], 0.418 µM in assay [9] and 0.0967 µM in [10]. The TGI is 2.58 µM in assay [1]; 8.76 µM in [2]; more than 100 µM in assay [3]; 1.96 µM in assay [4]; more than 100 µM in assay [6]; 3.48 µM in assay [7]. Moreover, the total growth inhibition concentration (TGI) is more than 100 µM in assay [8], more than 100 µM in assay [9] and 0.736 µM in [10].

The record behind these values is PubChem BioAssay (NCI).
